Literature values as cited in patent US4897502A, “Process for making solid polyhalotriaryl phosphate esters” (priority 1987, dated 1990).
Where two headings read alike, the source gives them in different places.

Legend:
[1] = 0° C.

Row | Molecule | Hansen Dispersion Component (Table I) [SI] | Hildebrand Solubility Parameter (Table I) [SI] | other results
1 | CC(C)O [Example 2-propanol, 2-propanol] |  |  | Hansen Dispersion Component (comparison liquids): 7.6
2 | amyl alcohol [amyl alcohol (pract.)] | 14.5 |  | 
3 | CO [methanol] |  |  | Hansen Dispersion Component (comparison liquids): 7.4
4 | CCCCCO [Example 1-pentanol, 1-pentanol] | 14.4 |  | 
5 | CCCCCCCCCCO [Example 1-decanol, 1-decanol] | 15.4 | 20.5 | 
6 | CCCCC(O)CC (centres unmarked) [Example 3-heptanol, 3-heptanol] | 14.6 | 20.2 | 
7 | CCCCCCCCO [Example 1-octanol, 1-octanol] | 15.2 | 21.1 | 
8 | CCCC(C)O (centres unmarked) [Example 2-pentanol, 2-pentanol] | 15.0 | 22.2 | 
9 | [Cl-].[Cl-].[Mg+2] [magnesium chloride] |  |  | magnesium chloride dissolving in 100 g ethanol ([1]; 100 g ethanol): 3.61 g; magnesium chloride dissolving in 100 g methanol ([1]; 100 g methanol): 15.5 g
10 | CCCCC(CC)CO (centres unmarked) [2-ethylhexanol] |  | 20.8 | 
11 | CCC(C)O (centres unmarked) [Example 2-butanol, 2-butanol] | 14.5 | 22.7 | 
12 | CCCCCCO [Example 1-hexanol, 1-hexanol] | 15.0 |  | 
13 | CCCCCC(C)O (centres unmarked) [Example 2-heptanol, 2-heptanol] | 14.6 |  | 
14 | CCCCCCCO [Example 1-heptanol, 1-heptanol] | 15.1 |  | 
